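GI50 is the concentration that inhibits growth by half. TGI denotes the concentration required for complete inhibition of growth.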
How the values were obtained:
Assay in all cases: growth of human tumour cells (NCI), 384-well format
MDA-MB-468 breast = test system: MDA-MB-468 breast
HCT-116 colon = test system: HCT-116 colon
HCT-15 colon = test system: HCT-15 colon
M14 melanoma = test system: M14 melanoma
HS 578T breast = test system: HS 578T breast
CAKI-1 renal = test system: CAKI-1 renal
U251 glioblastoma = test system: U251 glioblastoma
UACC-257 melanoma = test system: UACC-257 melanoma
NCI-H226 lung = test system: NCI-H226 lung
MALME-3M melanoma = test system: MALME-3M melanoma
SK-OV-3 ovarian = test system: SK-OV-3 ovarian
HL-60(TB) leukemia = test system: HL-60(TB) leukemia
OVCAR-3 ovarian = test system: OVCAR-3 ovarian

Compound `Nc1nc2cc(-c3ccc4ncc(C(=O)N5CCOCC5)n4c3)ccc2o1` has a GI50 (MDA-MB-468 breast) of 3.93 µM, a TGI (MDA-MB-468 breast) greater than 92.3 µM and a GI50 (HCT-116 colon) of 5.23 µM. For the same compound, the TGI (HCT-116 colon) was greater than 100 µM, the GI50 (HCT-15 colon) was 6.21 µM and the TGI (HCT-15 colon) was greater than 100 µM. It also gave a GI50 (M14 melanoma) of 11.6 µM, a TGI (M14 melanoma) greater than 100 µM and a GI50 (HS 578T breast) of 6.07 µM. The TGI (HS 578T breast) was 66.2 µM, the GI50 (CAKI-1 renal) was 6.74 µM and the TGI (CAKI-1 renal) was greater than 100 µM. The GI50 (U251 glioblastoma) was greater than 74.7 µM, the TGI (U251 glioblastoma) was greater than 100 µM and the GI50 (UACC-257 melanoma) was greater than 100 µM. The TGI (UACC-257 melanoma) was greater than 100 µM, the GI50 (NCI-H226 lung) was greater than 40.4 µM and the TGI (NCI-H226 lung) was greater than 100 µM. The GI50 (MALME-3M melanoma) was 2.78 µM, the TGI (MALME-3M melanoma) was greater than 68.5 µM and the GI50 (SK-OV-3 ovarian) was 2.09 µM. It also gave a TGI (SK-OV-3 ovarian) of 12.3 µM, a GI50 (HL-60(TB) leukemia) of 5.36 µM and a TGI (HL-60(TB) leukemia) greater than 78 µM. For the same compound, the GI50 (OVCAR-3 ovarian) was 7.73 µM and the TGI (OVCAR-3 ovarian) was greater than 100 µM.
